Reference: patent US20040258695A1, “Transferrin binding peptides and uses thereof” (priority 2003, published 2004)

Tests used:
[1] = test system: TbpB N-lobe from M. haemolytica; experiment: bTf C-lobe overlapping peptide library probed with HRP-labelled M. haemolytica TbpB N-lobe; assay type: binding
Description: (§1) Transferrin binding determinants from two bovine pathogens, M. haemolytica and H. somnus, as well as potential conserved transferrin binding determinants derived therefrom, were identified as described in Example 1 and shown in Table 4 below. Briefly, purified TbpB N-lobes from M. haemolytica and H. somnus were labelled with HRP and used to probe the bTf C-lobe overlapping peptide library. The peptides from the library that bound to the indicated TbpB N-lobe are listed in the column below the species name. The common overlap sequence from adjacent peptides probed with M. haemolytica (*), H. somnus (**) or both ( ) TbpB N-lobes are indicated for the indicated regions.

[2] = test system: TbpB N-lobe from H. somnus; experiment: bTf C-lobe overlapping peptide library probed with HRP-labelled H. somnus TbpB N-lobe; assay type: binding
Description: as §1

[3] = molecular target: T1, human transferrin (hTf), iron loaded (human, UniProt P02787 20-698); experiment: TbpB overlapping peptide library probed with labelled hTf as in Example 1
T1 construct: Used as a labelled probe (beta-gal conjugate for library 1, HRP conjugate for library 2 and the solid-phase assay); also called β-gal-hTf; HRP conjugated hTf

[4] = molecular target: T1, human transferrin (hTf), iron loaded; experiment: SPOT peptide library 2 of TbpB N-lobe probed with HRP-hTf, chemiluminescence
HRP alone = molecular target: T2, HRP alone (UniProt P00433 31-338); experiment: SPOT peptide library 2 probed with HRP alone, chemiluminescence
T2 construct: Negative control probe for library 2; also called horseradish peroxidase
T2 sequence: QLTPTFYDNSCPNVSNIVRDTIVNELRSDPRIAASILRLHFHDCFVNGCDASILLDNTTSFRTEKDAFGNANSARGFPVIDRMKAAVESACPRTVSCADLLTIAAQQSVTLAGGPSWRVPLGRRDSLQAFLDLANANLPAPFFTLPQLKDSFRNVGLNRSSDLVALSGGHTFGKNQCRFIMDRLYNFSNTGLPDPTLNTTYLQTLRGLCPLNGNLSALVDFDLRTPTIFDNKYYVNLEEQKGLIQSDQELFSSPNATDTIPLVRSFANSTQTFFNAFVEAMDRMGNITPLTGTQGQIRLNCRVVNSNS

T1 sequence (P02787 20-698 limits assumed): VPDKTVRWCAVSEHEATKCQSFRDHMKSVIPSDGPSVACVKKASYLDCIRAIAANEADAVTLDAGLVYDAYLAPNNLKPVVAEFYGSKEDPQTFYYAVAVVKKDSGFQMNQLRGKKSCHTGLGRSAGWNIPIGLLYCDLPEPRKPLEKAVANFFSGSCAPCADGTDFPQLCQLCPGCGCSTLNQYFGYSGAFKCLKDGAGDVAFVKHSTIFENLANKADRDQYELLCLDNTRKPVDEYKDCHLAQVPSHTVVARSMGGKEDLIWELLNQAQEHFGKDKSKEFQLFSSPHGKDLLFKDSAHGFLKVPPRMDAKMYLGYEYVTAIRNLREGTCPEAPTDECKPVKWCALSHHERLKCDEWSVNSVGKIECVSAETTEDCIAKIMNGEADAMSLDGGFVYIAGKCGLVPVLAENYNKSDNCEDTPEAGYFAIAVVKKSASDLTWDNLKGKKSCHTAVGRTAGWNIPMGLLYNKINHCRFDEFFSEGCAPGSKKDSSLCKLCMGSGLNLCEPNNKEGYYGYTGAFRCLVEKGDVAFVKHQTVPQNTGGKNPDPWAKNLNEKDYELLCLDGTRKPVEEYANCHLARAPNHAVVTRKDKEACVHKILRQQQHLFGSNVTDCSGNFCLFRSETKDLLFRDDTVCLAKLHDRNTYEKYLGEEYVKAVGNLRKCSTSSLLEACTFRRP

| Molecule | binding to M. haemolytica TbpB N-lobe (bound peptide listed; None = did not bind) [1] | binding to H. somnus TbpB N-lobe (bound peptide listed; None = did not bind) [2] | binding result [3] | binding result [4] | binding result (HRP alone) |
| --- | --- | --- | --- | --- | --- |
| NSNERYYGYTGAFRC (TbpB N-lobes of Bovine Pathgens) [Peptide 6, bTf C-lobe library peptide] | None | NSNERYYGYTGAFRC | – | – | – |
| RDDTKCLASIAKKTY (TbpB N-lobes of Bovine Pathgens) [Peptide 16, bTf C-lobe library peptide] | RDDTKCLASIAKKTY | RDDTKCLASIAKKTY | – | – | – |
| NTDGNNNEAWALK (NTDGNNNEAWAKNLK; TbpB N-lobes of Bovine Pathgens) [Peptide 8, bTf C-lobe library peptide] | None | NTDGNNNEAWALK | – | – | – |
| CAIGHQERTKCDRWS (TbpB N-lobes of Bovine Pathgens) [Peptide 2, bTf C-lobe library peptide] | CAIGHQERTKCDRWS | CAIGHQERTKCDRWS | – | – | – |
| KTSDANINWNNLKDK (TbpB N-lobes of Bovine Pathgens) [Peptide 4, bTf C-lobe library peptide] | KTSDANINWNNLKDK | – | – | – | – |
| CHLARGPNHAVVSRK (TbpB N-lobes of Bovine Pathgens) [Peptide 12, bTf C-lobe library peptide] | CHLARGPNHAVVSRK | CHLARGPNHAVVSRK | – | – | – |
| AWAKNLKKENFEVLC (TbpB N-lobes of Bovine Pathgens) [Peptide 10, bTf C-lobe library peptide] | AWAKNLKKENFEVLC | None | – | – | – |
| MVKWCAIGHQERTKC (TbpB N-lobes of Bovine Pathgens) [Peptide 1, bTf C-lobe library peptide] | MVKWCAIGHQERTKC | MVKWCAIGHQERTKC | – | – | – |
| ANINWNNLKDKKSCH (TbpB N-lobes of Bovine Pathgens) [Peptide 5, bTf C-lobe library peptide] | ANINWNNLKDKKSCH | ANINWNNLKDKKSCH | – | – | – |
| RGPNHAVVSRKDKAT (TbpB N-lobes of Bovine Pathgens) [Peptide 13, bTf C-lobe library peptide] | RGPNHAVVSRKDKAT | RGPNHAVVSRKDKAT | – | – | – |
| HAVVSRKDKATCVEK (TbpB N-lobes of Bovine Pathgens) [Peptide 14, bTf C-lobe library peptide] | HAVVSRKDKATCVEK | HAVVSRKDKATCVEK | – | – | – |
| NLKKENFEVLCKDGT (TbpB N-lobes of Bovine Pathgens) [Peptide 11, bTf C-lobe library peptide] | NLKKENFEVLCKDGT | None | – | – | – |
| SRKDKATCVEKILNK (TbpB N-lobes of Bovine Pathgens) [Peptide 15, bTf C-lobe library peptide] | None | SRKDKATCVEKILNK | – | – | – |
| HQERTKCDRWSGFSG (TbpB N-lobes of Bovine Pathgens) [Peptide 3, bTf C-lobe library peptide] | HQERTKCDRWSGFSG | HQERTKCDRWSGFSG | – | – | – |
| KCLASIAKKTYDSYL (TbpB N-lobes of Bovine Pathgens) [Peptide 17, bTf C-lobe library peptide] | KCLASIAKKTYDSYL | KCLASIAKKTYDSYL | – | – | – |
| RYYGYTGAFRCLVEK (TbpB N-lobes of Bovine Pathgens) [Peptide 7, bTf C-lobe library peptide] | None | RYYGYTGAFRCLVEK | – | – | – |
| NNNEAWAKNLKKENF (TbpB N-lobes of Bovine Pathgens) [Peptide 9, bTf C-lobe library peptide] | NNNEAWAKNLKKENF | NNNEAWAKNLKKENF | – | – | – |
| RAMTNLRQCSTSKLL (TbpB N-lobes of Bovine Pathgens) [Peptide 18, bTf C-lobe library peptide] | RAMTNLRQCSTSKLL | RAMTNLRQCSTSKLL | – | – | – |
| IQSWSLRDLPNKKFY (library peptide) [H. influenzae TbpB peptide IQSWSLRDLPNKKFY] | – | – | binds | – | – |

| Molecule | binding to M. haemolytica TbpB N-lobe (bound peptide listed; None = did not bind) [1] | binding to H. somnus TbpB N-lobe (bound peptide listed; None = did not bind) [2] | binding result [3] | binding result [4] | binding result (HRP alone) |
| --- | --- | --- | --- | --- | --- |
| FSEVKENSQAGWYYG (SPOT peptide immobilised on cellulose membrane) [M. catarrhalis TbpB N-lobe peptide fsevkensqagwyyg] | – | – | – | binds | no binding |
| AVKYKGHWDFMTDVA (SPOT peptide immobilised on cellulose membrane) [M. catarrhalis TbpB N-lobe peptide avkykghwdfmtdva] | – | – | – | binds | no binding |
| GKLFSNLQDRHKGNV (SPOT peptide immobilised on cellulose membrane) [M. catarrhalis TbpB N-lobe peptide gklfsnlqdrhkgnv] | – | – | – | binds | no binding |
| KGHWDFMTDVANRRN (SPOT peptide immobilised on cellulose membrane) [M. catarrhalis TbpB N-lobe peptide kghwdfmtdvanrrn] | – | – | – | binds | no binding |
| NFKEKKLTGKLFSNL (SPOT peptide immobilised on cellulose membrane) [M. catarrhalis TbpB N-lobe peptide nfkekkltgklfsnl] | – | – | – | binds | no binding |
| SALPVGGVATYKGTW (library peptide) [H. influenzae TbpB peptide SALPVGGVATYKGTW] | – | – | binds | – | – |
| AMGYGMALSKINLHN (SPOT peptide immobilised on cellulose membrane) [M. catarrhalis TbpB N-lobe peptide amgygmalskinlhn] | – | – | – | binds | no binding |
| RNSGGGQAYSRRSAT (library peptide) [H. influenzae TbpB peptide RNSGGGQAYSRRSAT] | – | – | binds | – | – |
| GKFLAHDKKVLGVFS (library peptide) [H. influenzae TbpB peptide GKFLAHDKKVLGVFS] | – | – | binds | – | – |
| TDANKSQNRTHKLYD (library peptide) [H. influenzae TbpB peptide TDANKSQNRTHKLYD] | – | – | binds | – | – |
| YKGTWSFITAAENGK (library peptide) [H. influenzae TbpB peptide YKGTWSFITAAENGK] | – | – | binds | – | – |
| KTERYDIDANIHGNR (SPOT peptide immobilised on cellulose membrane) [M. catarrhalis TbpB N-lobe peptide kterydidanihgnr] | – | – | – | binds | no binding |
| YDIDANIHGNRFRGS (SPOT peptide immobilised on cellulose membrane) [M. catarrhalis TbpB N-lobe peptide ydidanihgnrfrgs] | – | – | – | binds | no binding |
| KKLTGKLFSNLQDRH (SPOT peptide immobilised on cellulose membrane) [M. catarrhalis TbpB N-lobe peptide kkltgklfsnlqdrh] | – | – | – | binds | no binding |
| AALNLFDRNKPSLLN (library peptide) [H. influenzae TbpB peptide AALNLFDRNKPSLLN] | – | – | binds | – | – |
| APNSNENRHGQKYVY (library peptide) [H. influenzae TbpB peptide APNSNENRHGQKYVY] | – | – | binds | – | – |
| DFMTDVANRRNRFSE (SPOT peptide immobilised on cellulose membrane) [M. catarrhalis TbpB N-lobe peptide dfmtdvanrrnrfse] | – | – | – | binds | no binding |
| WNLGPVGGVFYNGTT (SPOT peptide immobilised on cellulose membrane) [M. catarrhalis TbpB N-lobe peptide wnlgpvggvfyngtt] | – | – | – | binds | no binding |
